Measured values reported in patent publication US6946458B2, “N-thiolated beta-lactams: novel antibacterial agents for methicillin-resistant Staphylococcus aureus” (University of South Florida, priority 1999, dated 2005).

Experiments:
Assay in all cases: Kirby-Bauer agar disk diffusion
MRSA USF652 = assay type: cell-based, Staphylococcus aureus; parameters: Kirby-Bauer Disc Diffusion Test Results: unit not given here; conditions: for Kirby-Bauer Disc Diffusion Test Results: Table 5, beta-lactamase producing strain; for Zones of Inhibition: Table 4, 20 μg disk loading; for zone of growth inhibition, average diameter: Table 3, 6-mm disks, 20 μg test compound, 24 hours
Description: (§1) In this study, a selection of N-methylthio-substituted β-lactams are examined for antimicrobial activity by the Kirby-Bauer disk diffusion method on agar plates. A variety of common Gram-positive and Gram-negative bacteria are tested, including clinical isolates of methicillin-resistant Staphylococcus aureus (MRSA).
(§2) Compound susceptibility measurements are obtained from agar disk diffusion experiments using 6-mm air-dried disks impregnated with 20 μg of the test compound. The values correspond to the average diameters in mm (triplicate experiments) for the zone of growth inhibition observed after 24 h. Staphylococcus aureus (ATCC 25923) and β-lactamase-producing strains of methicillin-resistant Staphylococcus aureus (labeled as MRSA USF652-659) are obtained from Lakeland Regional Medical Center, Lakeland, Fla. Staphylococcus epidermidis, Staphylococcus simulans, Staphylococcus simulans, and Microcossus luteus are clinical isolates from University of South Florida Medical Clinic. Nieserria gonnorhoeae (β-lactamase positive) is obtained from the Tampa Branch State Laboratory. PenG is penicillin G (potassium salt). Table 1 provides the zones of growth inhibition that are observed after 24 hours using the lactams of FIGS. 1A-1I (designated A-I, respectively).
(§3) Of particular interest is the ability of these compounds to retain their effectiveness against penicillin-resistant strains of Staphylococcus aureus, a dangerous hospital-borne pathogen which is becoming difficult to treat with conventional antibiotic therapy. The lactams were screened for antibacterial activity by disk diffusion on agar plates, and the resulting zones of bacterial growth inhibition measured (see Table 3; each lactam is designated by Figure number).
(§4) Table 3: Growth inhibition zones obtained from agar disk diffusion experiments using 6-mm air-dried disks impregnated with 20 μg of the test compound. The values correspond to the average diameters in mm for the zone of growth inhibition observed after 24 hours. Staphylococcus aureus and β-lactamase-producing strains of methicillin-resistant Staphylococcus aureus (labeled MRSA USF652-659) are obtained from a clinical testing laboratory at Lakeland Regional Medical Center, Lakeland, Fla.
(§5) Those compounds were tested for bioactivity using the Kirby-Bauer test on agar plates.
(§6) Biological activity is enhanced against β-lactamase producing strains of methicillin-resistant Staphylococcus aureus (MRSA). With the lactam shown in FIG. 11A serving as a lead structure, a series of other C-4 substituted derivatives (FIGS. 11B-11I) were investigated herein. Table 5 lists microbiological data for β-lactams from Kirby-Bauer Disc Diffusion Test Results (with each lactam identified by Figure number).
(§7) Scheme I summarizes the synthesis of ester compounds 4. 4-Carboxy benzaldehyde (1) is coupled with the appropriate alcohol using DCC/DMAP, followed by reaction with p-anisidine, to give imines 2. Staudinger coupling of methoxyacetyl chloride with imine 2 gives N-aryl protected β-lactam 3. N-Dearylation of β-lactam 3 with ceric ammonium nitrate and methylthiolation with N-(methylthio)phthalimide affords N-methylthio β-lactams 4. These compounds are tested for antibacterial activity by the Kirby-Bauer method of disc diffusion on agar plates. [drawing 7]

MRSA USF653 = assay type: cell-based, Staphylococcus aureus; parameters: Kirby-Bauer Disc Diffusion Test Results: unit not given here; conditions: for Kirby-Bauer Disc Diffusion Test Results: Table 5, beta-lactamase producing strain; for Zones of Inhibition: Table 4, 20 μg disk loading; for zone of growth inhibition, average diameter: Table 3, 6-mm disks, 20 μg test compound, 24 hours
Description: as §1, §2, §3, §4, §5, §6, §7

MRSA USF657 = assay type: cell-based, Staphylococcus aureus; parameters: Kirby-Bauer Disc Diffusion Test Results: unit not given here; conditions: for Kirby-Bauer Disc Diffusion Test Results: Table 5, beta-lactamase producing strain; for Zones of Inhibition: Table 4, 20 μg disk loading; for zone of growth inhibition, average diameter: Table 3, 6-mm disks, 20 μg test compound, 24 hours
Description: as §1, §2, §3, §4, §5, §6, §7

MRSA USF658 = assay type: cell-based, Staphylococcus aureus; parameters: Kirby-Bauer Disc Diffusion Test Results: unit not given here; conditions: for Kirby-Bauer Disc Diffusion Test Results: Table 5, beta-lactamase producing strain; for Zones of Inhibition: Table 4, 20 μg disk loading; for zone of growth inhibition, average diameter: Table 3, 6-mm disks, 20 μg test compound, 24 hours
Description: as §1, §2, §3, §4, §5, §6, §7

MRSA USF655 = assay type: cell-based, Staphylococcus aureus; parameters: Kirby-Bauer Disc Diffusion Test Results: unit not given here; conditions: for Kirby-Bauer Disc Diffusion Test Results: Table 5; for Zones of Inhibition: Table 4, 20 μg disk loading; for zone of growth inhibition, average diameter: Table 3, 6-mm disks, 20 μg test compound, 24 hours
Description: as §1, §2, §3, §4, §5, §6, §7

MRSA USF659 = assay type: cell-based, Staphylococcus aureus; parameters: Kirby-Bauer Disc Diffusion Test Results: unit not given here; conditions: for Kirby-Bauer Disc Diffusion Test Results: Table 5, beta-lactamase producing strain; for Zones of Inhibition: Table 4, 20 μg disk loading; for zone of growth inhibition, average diameter: Table 3, 6-mm disks, 20 μg test compound, 24 hours
Description: as §1, §2, §3, §4, §5, §6, §7

MRSA USF656 = assay type: cell-based, Staphylococcus aureus; parameters: Kirby-Bauer Disc Diffusion Test Results: unit not given here; conditions: for Kirby-Bauer Disc Diffusion Test Results: Table 5, beta-lactamase producing strain; for Zones of Inhibition: Table 4, 20 μg disk loading; for zone of growth inhibition, average diameter: Table 3, 6-mm disks, 20 μg test compound, 24 hours
Description: as §1, §2, §3, §4, §5, §6, §7

MRSA USF654 = assay type: cell-based, Staphylococcus aureus; parameters: Kirby-Bauer Disc Diffusion Test Results: unit not given here; conditions: for Kirby-Bauer Disc Diffusion Test Results: Table 5, beta-lactamase producing strain; for Zones of Inhibition: Table 4, 20 μg disk loading; for zone of growth inhibition, average diameter: Table 3, 6-mm disks, 20 μg test compound, 24 hours
Description: as §1, §2, §3, §4, §5, §6, §7

Staph aureus 525 = assay type: cell-based, Staphylococcus aureus; conditions: for Kirby-Bauer Disc Diffusion Test Results: Table 5; for Zones of Inhibition: Table 4, 20 μg disk loading
[1] = system: S. saprophyticus (ATCC 3552); assay type: cell-based, Staphylococcus saprophyticus; conditions: Table 3, 6-mm disks, 20 μg test compound, 24 hours
Description: as §1, §2, §3, §4

Micrococcus luteus = assay type: cell-based; conditions: Table 3, 6-mm disks, 20 μg test compound, 24 hours
Description: as §1, §2, §3, §4

[2] = system: Staphylococcus epidermidis; assay type: cell-based; conditions: Table 3, 6-mm disks, 20 μg test compound, 24 hours
Description: as §1, §2, §3, §4

[3] = system: Staphylococcus aureus (ATCC 25923); assay type: cell-based; conditions: Table 3, 6-mm disks, 20 μg test compound, 24 hours
Description: as §1, §2, §3, §4

S. simulans (ATCC 11631) = assay type: cell-based, Staphylococcus simulans; conditions: Table 3, 6-mm disks, 20 μg test compound, 24 hours
Description: as §1, §2, §3, §4

## COC1C(=O)N(SC)C1c1ccc(Cl)cc1 (racemic) [FIG. 11H]
MRSA USF652
  Kirby-Bauer Disc Diffusion Test Results: 24
MRSA USF653
  Kirby-Bauer Disc Diffusion Test Results: 28
MRSA USF657
  Kirby-Bauer Disc Diffusion Test Results: 22
MRSA USF658
  Kirby-Bauer Disc Diffusion Test Results: 20
MRSA USF655
  Kirby-Bauer Disc Diffusion Test Results: 23
MRSA USF659
  Kirby-Bauer Disc Diffusion Test Results: 18
MRSA USF656
  Kirby-Bauer Disc Diffusion Test Results: 22
MRSA USF654
  Kirby-Bauer Disc Diffusion Test Results: 23
Staph aureus 525
  Kirby-Bauer Disc Diffusion Test Results: 24

## COC1C(=O)N(SC)C1c1ccc(C#N)cc1 (racemic) [FIG. 11D]
MRSA USF652
  Kirby-Bauer Disc Diffusion Test Results: 14
MRSA USF653
  Kirby-Bauer Disc Diffusion Test Results: 16
MRSA USF657
  Kirby-Bauer Disc Diffusion Test Results: 10
MRSA USF658
  Kirby-Bauer Disc Diffusion Test Results: 12
MRSA USF655
  Kirby-Bauer Disc Diffusion Test Results: 12
MRSA USF659
  Kirby-Bauer Disc Diffusion Test Results: 12
MRSA USF656
  Kirby-Bauer Disc Diffusion Test Results: 13
MRSA USF654
  Kirby-Bauer Disc Diffusion Test Results: 0
Staph aureus 525
  Kirby-Bauer Disc Diffusion Test Results: 14

## COC1C(=O)N(SC2CCCCC2)C1c1ccccc1Cl (racemic) [Cyclo-hexyl]
MRSA USF652
  Zones of Inhibition: 25 mm
MRSA USF653
  Zones of Inhibition: 20 mm
MRSA USF657
  Zones of Inhibition: 23 mm
MRSA USF658
  Zones of Inhibition: 26 mm
MRSA USF655
  Zones of Inhibition: 22 mm
MRSA USF659
  Zones of Inhibition: 22 mm
MRSA USF656
  Zones of Inhibition: 23 mm
MRSA USF654
  Zones of Inhibition: 21 mm
Staph aureus 525
  Zones of Inhibition: 21 mm

## COC1C(=O)N(SC)C1C#Cc1ccccc1 (racemic) [FIG. 11A]
MRSA USF652
  Kirby-Bauer Disc Diffusion Test Results: 29
MRSA USF653
  Kirby-Bauer Disc Diffusion Test Results: 29
MRSA USF657
  Kirby-Bauer Disc Diffusion Test Results: 28
MRSA USF658
  Kirby-Bauer Disc Diffusion Test Results: 27
MRSA USF655
  Kirby-Bauer Disc Diffusion Test Results: 27
MRSA USF659
  Kirby-Bauer Disc Diffusion Test Results: 24
MRSA USF656
  Kirby-Bauer Disc Diffusion Test Results: 30
MRSA USF654
  Kirby-Bauer Disc Diffusion Test Results: 27
Staph aureus 525
  Kirby-Bauer Disc Diffusion Test Results: 27

## COC1C(=O)N(SC)C1C=Cc1ccccc1 (racemic) [FIG. 3A]
MRSA USF652; listed as 3A
  zone of growth inhibition, average diameter: 10 mm
MRSA USF653; listed as 3A
  zone of growth inhibition, average diameter: 18 mm
MRSA USF657; listed as 3A
  zone of growth inhibition, average diameter: 11 mm
MRSA USF658; listed as 3A
  zone of growth inhibition, average diameter: 10 mm
MRSA USF655; listed as 3A
  zone of growth inhibition, average diameter: 12 mm
MRSA USF659; listed as 3A
  zone of growth inhibition, average diameter: 10 mm
MRSA USF656; listed as 3A
  zone of growth inhibition, average diameter: 13 mm
MRSA USF654; listed as 3A
  zone of growth inhibition, average diameter: 12 mm
[1]; listed as 3A
  zone of growth inhibition, average diameter: 14 mm
Micrococcus luteus; listed as 3A
  zone of growth inhibition, average diameter: 11 mm
[2]; listed as 3A
  zone of growth inhibition, average diameter: 12 mm
[3]; listed as 3A
  zone of growth inhibition, average diameter: 10 mm
S. simulans (ATCC 11631); listed as 3A
  zone of growth inhibition, average diameter: 9 mm

## COC1C(=O)N(SC)C1c1ccccc1Cl (racemic) [Methyl-thio]
MRSA USF652
  Zones of Inhibition: 30 mm
MRSA USF653
  Zones of Inhibition: 29 mm
MRSA USF657
  Zones of Inhibition: 27 mm
MRSA USF658
  Zones of Inhibition: 26 mm
MRSA USF655
  Zones of Inhibition: 26 mm
MRSA USF659
  Zones of Inhibition: 23 mm
MRSA USF656
  Zones of Inhibition: 28 mm
MRSA USF654
  Zones of Inhibition: 26 mm
Staph aureus 525
  Zones of Inhibition: 26 mm

## COC1C(=O)N(SC)C1c1cccc([N+](=O)[O-])c1 (racemic) [FIG. 11C]
MRSA USF652
  Kirby-Bauer Disc Diffusion Test Results: 17
MRSA USF653
  Kirby-Bauer Disc Diffusion Test Results: 22
MRSA USF657
  Kirby-Bauer Disc Diffusion Test Results: 18
MRSA USF658
  Kirby-Bauer Disc Diffusion Test Results: 17
MRSA USF655
  Kirby-Bauer Disc Diffusion Test Results: 14
MRSA USF659
  Kirby-Bauer Disc Diffusion Test Results: 11
MRSA USF656
  Kirby-Bauer Disc Diffusion Test Results: 18
MRSA USF654
  Kirby-Bauer Disc Diffusion Test Results: 16
Staph aureus 525
  Kirby-Bauer Disc Diffusion Test Results: 15

## CSN1C(=O)C(OC(C)=O)C1CCc1ccccc1 (racemic) [FIG. 3F]
MRSA USF652
  zone of growth inhibition, average diameter: 17 mm
MRSA USF653
  zone of growth inhibition, average diameter: 18 mm
MRSA USF657
  zone of growth inhibition, average diameter: 17 mm
MRSA USF658
  zone of growth inhibition, average diameter: 15 mm
MRSA USF655
  zone of growth inhibition, average diameter: 15 mm
MRSA USF659
  zone of growth inhibition, average diameter: 16 mm
MRSA USF656
  zone of growth inhibition, average diameter: 18 mm
MRSA USF654
  zone of growth inhibition, average diameter: 17 mm
[1]
  zone of growth inhibition, average diameter: 13 mm
Micrococcus luteus
  zone of growth inhibition, average diameter: 23 mm
[2]
  zone of growth inhibition, average diameter: 18 mm
[3]
  zone of growth inhibition, average diameter: 17 mm
S. simulans (ATCC 11631)
  zone of growth inhibition, average diameter: 11 mm
